Data reported in patent publication US20030110518A1, “Melanocortin-5 receptor sequences and uses thereof” (priority 2001, published 2003).

Experiments:
canine MC5R [1] = biological target: T1, canine MC5R (Canis lupus familiaris, UniProt A0A8I3MI44); test: Whole cell binding assay with radiolabeled NDP-MSH in transfected HEK293a cells; design: expressed in transfected cells; host or cells: HEK293 / HEK293a; conditions: 75 pM label, 37° C., 1 hour; clones nos. 9 and 13; FIG. 5
Method: Transient transfection & Whole Cell Binding Assay. A 50% confluent cell culture plate containing HEK293 cells is used for transient transfection with various vector constructs using Fugene 6 as a transfection carrier (4 μl Fugene 6 per μg plasmid DNA). Cells are harvested 48 hours post transfection using Sigma dissociation buffer (Sigma Chemical Co., St. Louis, Mo.), then centrifuged and resuspended in binding buffer (50 mM HEPES, 5 mM MgCl, 0.1% BSA, pH 7.5, containing a Sigma P-8340 protease inhibitor cocktail). The resuspended cell population is counted using a hemacytometer. A cell volume titration is performed by pipetting varying volumes in triplicate into tubes. Either buffer or excess cold NDP-MSH (2 μM final conc.) is added. Excess cold NDP-MSH is used to ascertain non-specific binding. Radiolabeled (^125I) NDP-MSH is added such that the final concentration is 75 pM. The reaction is incubated at 37° C. for 1 hour, and then the reaction mixture is centrifuged at 5000×g for 10 minutes. The supernatant solution is removed by aspiration and radioisotope remaining with the cell pellet is counted in a gamma counter. FIG. 5 discloses the specific NDP-MSH binding to five canine MC5R/HEK293a cells (shown as “C5#_” in FIG. 5).

[2] = biological target: canine melanocortin 5 receptor (canine); test: cell-based or functional assay
canine MC5R [3] = biological target: T1, canine MC5R
Method: The following example discloses the measurement of canine MC5R-mediated cAMP accumulation in response to α-MSH stimulation.
As described above, MC5R, when activated by its agonist ligand, stimulates adenylyl cyclase to form cAMP. A commercially available kit (Adenylyl Cyclase Activation Flashplate Assay, NEN® Life Science Products, Inc., Boston, Mass., Cat # SMP004, SMP004A) is used to measure cAMP accumulation. An MC5R/HEK293 cell line is prepared. Cells are harvested using Sigma dissociation buffer, washed, centrifuged and resuspended in stimulation buffer, which is provided in the kit (Sigma Chemical Co., St. Louis, Mo.). The suspended cells are counted using a hemacytometer. Cells are pelleted again by centrifugation and resuspended with stimulation buffer to the desired concentration (0.5-5×10^6 cells per ml). A cell volume titration is performed by transferring varying volumes in triplicate into wells. For each cell concentration tested, a full agonist dose titration is performed, including a negative control. The agonists employed include [Nle^4,D-Phe^7]-α-MSH(NDP-MSH) and α-MSH. […]
The duration of stimulation by agonist is also varied (15-45 minutes). […] Stimulation of MC5R is determined by scillintation counting in a Wallac MICROBETA® scintillation counter (EG&G Wallac, Gaithersburg, Md.).

T1 sequence (A0A8I3MI44 1-325): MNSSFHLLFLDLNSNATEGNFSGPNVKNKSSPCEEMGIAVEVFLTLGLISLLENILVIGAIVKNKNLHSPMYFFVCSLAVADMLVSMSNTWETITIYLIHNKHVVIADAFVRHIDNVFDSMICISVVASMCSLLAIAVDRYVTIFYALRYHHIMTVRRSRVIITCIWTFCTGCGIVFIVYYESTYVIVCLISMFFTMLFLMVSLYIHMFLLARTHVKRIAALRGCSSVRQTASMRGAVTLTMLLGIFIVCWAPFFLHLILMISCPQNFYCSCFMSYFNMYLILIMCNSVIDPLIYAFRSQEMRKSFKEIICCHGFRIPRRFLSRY
Sequence of canine melanocortin 5 receptor (canine) (chain, as listed by the source limits assumed): as the sequence (A0A8I3MI44 1-325) above, with H100Y, G314A counted along it

Question: For [Nle4,D-Phe7]-α-MSH [NDP-MSH], which “specific binding of radiolabeled (125I) NDP-MSH to canine MC5R/HEK293a cells” value (canine MC5R [1]) is on record?
Answer: high level of specific binding

Question: With “α-melanocyte stimulating hormone (from UniProt P01189 138-150) (peptide)” as the substance, how does the EC50 of cAMP accumulation (Adenylyl Cyclase Activation Flashplate Assay), clone C9 [2] read?
Answer: 5 nM

Question: And the fold stimulation of cAMP accumulation [2]?
Answer: < 8 fold

Question: Which “sensitivity of MC5R clones to α-MSH compared with a MC4R clone” value (canine MC5R [3]; both MC5R clones versus a MC4R clone) does the source give for “α-melanocyte stimulating hormone [α-MSH]” here?
Answer: more sensitive

Question: And the “stimulation of cAMP accumulation with α-MSH” value (canine MC5R [3]; three clones, FIG. 6)?
Answer: ≤ 8 fold
